Results reported in publication PMC7614720 (European journal of medicinal chemistry, 2021).

Assays:
OXA-48 = OXA-48 (Klebsiella pneumoniae, UniProt Q6XEC0); test: 1H NMR of enzymatic hydrolysis products; format: biochemical
NDM-1 = NDM-1 (Klebsiella pneumoniae, UniProt C7C422); test: 1H NMR of enzymatic hydrolysis products; format: biochemical
Sequence of NDM-1 (C7C422 29-270, looked up): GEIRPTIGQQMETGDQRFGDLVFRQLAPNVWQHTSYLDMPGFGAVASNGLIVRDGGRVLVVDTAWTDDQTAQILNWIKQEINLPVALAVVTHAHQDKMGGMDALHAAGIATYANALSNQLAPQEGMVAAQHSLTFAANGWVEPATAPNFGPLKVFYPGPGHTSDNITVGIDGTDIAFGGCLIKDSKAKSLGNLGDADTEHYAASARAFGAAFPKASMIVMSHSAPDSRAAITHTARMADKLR

Sequence of OXA-48 (Q6XEC0 23-265 limits assumed): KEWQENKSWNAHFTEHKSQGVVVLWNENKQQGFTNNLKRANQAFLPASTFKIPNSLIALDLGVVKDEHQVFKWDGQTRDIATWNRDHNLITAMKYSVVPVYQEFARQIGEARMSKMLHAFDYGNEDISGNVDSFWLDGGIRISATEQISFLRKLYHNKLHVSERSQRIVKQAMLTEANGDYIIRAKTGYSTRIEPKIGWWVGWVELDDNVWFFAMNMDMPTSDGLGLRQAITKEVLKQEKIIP

For `C[C@@H](O)[C@H]1C(=O)N2C(C(=O)O)=C([C@H]3CCCO3)S[C@H]12` [faropenem], the “1H NMR of enzymatic hydrolysis products (5 μM enzyme, 55 min)” value (OXA-48) was “the class D SBLs OXA-10, OXA-23 and OXA-48 and the B1 MBLs NDM-1 and VIM-1” and the “1H NMR of enzymatic hydrolysis products (5 μM enzyme, 5 min)” value (NDM-1) was “we subsequently studied the reaction of faropenem with other SBLs/MBLs”.
